Assay results: patent US8852554B2, “Radiolabelled PDE10 ligands” (Janssen Pharmaceutica NV, priority 2009, dated 2014)
Several values for one entry are separate records, joined by “and”; a condition that tells them apart may be missing. Equal values may be shown once.

Legend:
[1] = molecular target: T1, PDE10A (Rattus norvegicus, UniProt Q9QYJ6); assay: MicroPET imaging studies; format: in vivo, male Wistar rats
T1 construct: from tissue; host or cells: brain (striatum) of living male Wistar rats, in vivo microPET
T1 sequence (Q9QYJ6 1-794): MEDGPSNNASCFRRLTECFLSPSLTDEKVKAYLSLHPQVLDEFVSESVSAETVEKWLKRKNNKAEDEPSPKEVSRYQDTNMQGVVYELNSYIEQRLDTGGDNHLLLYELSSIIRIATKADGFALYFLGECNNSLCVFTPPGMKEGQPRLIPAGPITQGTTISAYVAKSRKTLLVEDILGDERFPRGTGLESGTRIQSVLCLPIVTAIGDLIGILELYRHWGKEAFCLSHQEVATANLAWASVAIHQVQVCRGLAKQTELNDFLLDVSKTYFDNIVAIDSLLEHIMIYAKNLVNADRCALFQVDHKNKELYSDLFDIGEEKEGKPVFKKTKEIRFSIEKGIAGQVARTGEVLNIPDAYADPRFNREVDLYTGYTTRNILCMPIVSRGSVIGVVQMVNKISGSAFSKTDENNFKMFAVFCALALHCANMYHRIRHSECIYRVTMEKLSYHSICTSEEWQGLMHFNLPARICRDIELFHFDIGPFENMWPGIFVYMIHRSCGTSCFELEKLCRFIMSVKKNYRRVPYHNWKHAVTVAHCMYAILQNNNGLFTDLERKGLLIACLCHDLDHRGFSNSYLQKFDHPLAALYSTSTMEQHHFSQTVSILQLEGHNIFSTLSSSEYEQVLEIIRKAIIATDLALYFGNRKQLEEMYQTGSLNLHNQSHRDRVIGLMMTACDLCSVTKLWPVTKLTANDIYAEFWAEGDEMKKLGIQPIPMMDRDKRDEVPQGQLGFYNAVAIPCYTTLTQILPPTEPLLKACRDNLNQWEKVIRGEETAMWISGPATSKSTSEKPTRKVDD
Experimental: Imaging experiments were performed on a Focus™ 220 microPET scanner (Concorde Microsystems, Knoxville, Tenn., USA) using male Wistar rats with body weight varying between 300 and 600 g. […] Dynamic scans of 120 min were acquired in list mode. After reconstruction of the images, they were semi-automatically co-registered with a [^11C]raclopride template of the rat brain, and volumes of interest (VOIs) were generated for different anatomical brain structures (striatum, cerebral cortex and cerebellum) from which time-activity curves (TAC) were constructed for each individual image, using PMOD software (PMOD Technologies Ltd.). Normalization for body weight of the animal and injected dose was done. The radioactivity concentration in the different brain regions was expressed as SUV (standardized uptake value) as a function of time in seconds post injection of the radiotracer. The parametric binding potential (BP) values were calculated for all acquired images by using a simplified reference tissue model where the TAC of the cerebellum was used as input TAC for non-specific binding, using the same software (PMOD).
The radioactivity concentration in the different brain regions was expressed as SUV value as a function of time p.i. of the radiotracer by normalization for body weight of the animal and injected dose.

[2] = Biodistribution studies of the 18F tracers in rats; format: in vivo, male Wistar rats; details: rat
Experimental: Biodistribution studies were carried out in healthy male Wister rats (body weight 200-500 g) at 2 min, 30 min and 60 min post injection (p.i.) (n=3/time point). For |^18F|B-4 only the 2 min and 30 min time points were studied. […] Blood and major organs were collected in tared tubes and weighed. The radioactivity in blood, organs and other body parts was measured using an automated gamma counter. The distribution of radioactivity in different parts of the body at different time points p.i. of the tracer was calculated and expressed as percentage of injected dose (% ID), and as percentage of injected dose per gram tissue (% ID/g) for the selected organs. % ID is calculated as cpm in organ/total cpm recovered. For calculation of total radioactivity in blood, blood mass was assumed to be 7% of the body mass.

## COc1ccc(COc2ccc(-c3nn(CC[18F])cc3-c3ccncc3)cc2)nc1 [[^18F]B-4]
[1]; baseline microPET
  peak (maximum) striatum-to-cerebellum ratio: 4.4
  time of peak striatum-to-cerebellum ratio: about 6 min p.i.
  time until which peak striatum-to-cerebellum ratio remained: about 13 min p.i.
[1]; simplified reference tissue model, cerebellum as reference
  BP (binding potential) at baseline: 2.5
[2]; biodistribution studies
  retention in the PDE10A-rich region striatum: retention
[2]; i.v.
  Clearance, 2 min/30 min ratio of % ID/g (normalized for body weight), Blood: 1.36
  Clearance, 2 min/30 min ratio of % ID/g (normalized for body weight), Cerebellum: 3.82
  Clearance, 2 min/30 min ratio of % ID/g (normalized for body weight), Cerebrum total: 2.90
  Clearance, 2 min/30 min ratio of % ID/g (normalized for body weight), Cortex: 4.24
  Clearance, 2 min/30 min ratio of % ID/g (normalized for body weight), Hippocampus: 3.08
  Clearance, 2 min/30 min ratio of % ID/g (normalized for body weight), Rest of cerebrum: 2.87
  Clearance, 2 min/30 min ratio of % ID/g (normalized for body weight), Striatum: 1.80
[2]; i.v., 2 min p.i.
  % ID, Blood: 4.55 ± 0.4 % ID
  % ID, Carcass: 36.93 ± 1.3 % ID
  % ID, Cerebellum: 0.07 % ID and 0.065 ± 0.011 % ID
  % ID, Cerebrum total: 0.32 % ID and 0.317 ± 0.014 % ID
  % ID, Cortex: 0.036 ± 0.007 % ID
  % ID, Heart: 0.62 ± 0.2 % ID
  % ID, Hippocampus: 0.006 ± 0.002 % ID
  % ID, Intestines: 12.02 ± 2.1 % ID
  % ID, Kidneys: 4.99 ± 0.2 % ID
  % ID, Liver: 35.98 ± 3.1 % ID
  % ID, Lungs: 1.12 ± 0.0 % ID
  % ID, Rest of cerebrum: 0.257 ± 0.014 % ID
  % ID, Spleen + Pancreas: 2.37 ± 0.2 % ID
  % ID, Stomach: 2.8 % ID and 2.80 ± 0.2 % ID
  % ID, Striatum: 0.018 ± 0.003 % ID
  % ID, Urine: 0.28 ± 0.1 % ID
  % ID/g normalized for body weight, Blood: 0.07 ± 0.01 % ID/g × body wt. in kg
  % ID/g normalized for body weight, Cerebellum: 0.109 % ID/g × body wt. in kg and 0.109 ± 0.01 % ID/g × body wt. in kg
  % ID/g normalized for body weight, Cerebrum + Cerebellum: 0.13 ± 0.01 % ID/g × body wt. in kg
  % ID/g normalized for body weight, Cerebrum total: 0.124 ± 0.01 % ID/g × body wt. in kg
  % ID/g normalized for body weight, Cortex: 0.168 % ID/g × body wt. in kg and 0.168 ± 0.00 % ID/g × body wt. in kg
  % ID/g normalized for body weight, Heart: 0.21 ± 0.06 % ID/g × body wt. in kg
  % ID/g normalized for body weight, Hippocampus: 0.091 % ID/g × body wt. in kg and 0.091 ± 0.01 % ID/g × body wt. in kg
  % ID/g normalized for body weight, Kidneys: 0.63 ± 0.17 % ID/g × body wt. in kg
  % ID/g normalized for body weight, Liver: 1.09 ± 0.08 % ID/g × body wt. in kg
  % ID/g normalized for body weight, Lungs: 0.22 ± 0.03 % ID/g × body wt. in kg
  % ID/g normalized for body weight, Rest of cerebrum: 0.117 ± 0.01 % ID/g × body wt. in kg
  % ID/g normalized for body weight, Spleen + Pancreas: 0.55 ± 0.03 % ID/g × body wt. in kg
  % ID/g normalized for body weight, Striatum: 0.226 % ID/g × body wt. in kg and 0.226 ± 0.01 % ID/g × body wt. in kg
  % ID/g, Blood: 0.14 ± 0.04 % ID/g
  % ID/g, Cerebellum: 0.231 ± 0.031 % ID/g
  % ID/g, Cerebrum + Cerebellum: 0.269 ± 0.066 % ID/g
  % ID/g, Cerebrum total: 0.263 ± 0.029 % ID/g
  % ID/g, Cortex: 0.355 ± 0.012 % ID/g
  % ID/g, Heart: 0.45 ± 0.13 % ID/g
  % ID/g, Hippocampus: 0.193 ± 0.031 % ID/g
  % ID/g, Liver: 2.32 ± 0.28 % ID/g
  % ID/g, Lungs: 0.46 ± 0.07 % ID/g
  % ID/g, Rest of cerebrum: 0.248 ± 0.030 % ID/g
  % ID/g, Spleen + Pancreas: 1.17 ± 0.03 % ID/g
